# US20260191986A1, “LIPOSOME-BASED DRUG CARRIER FOR IMMUNE ANTICANCER THERAPY AND METHOD FOR PRODUCING SAME” (KONKUK UNIVERSITY INDUSTRIAL COOPERATION CORP, priority 2022, published 2026)
# What was measured:
# [1] = system: MDA-MB-231 cells; test: Extracellularly released ATP (ICD biomarker) after DOX or CIS; assay type: cell-based, human; conditions: different concentrations of drug
# Method: (§1) First, the efficacy of doxorubicin (DOX) as a potent ICD inducer in a breast cancer 4T1 tumor model and cancer cells was tested by monitoring the change in the TME (tumor microenvironment). To validate the immunogenic effect of DOX, immunogenic cell death (ICD) biomarkers, such as extracellularly released ATP and cell surface expressing CRT, were monitored in breast cancer cells (human: MDA-MB-231 cells; mouse: 4T1 cells) treated with different concentrations of DOX and cisplatin (CIS), a non-ICD inducer, as a comparative control group.
# [2] = system: 4T1 cells; test: as above; assay type: cell-based, mouse; conditions: different concentrations of drug
# Method: as §1
# [3] = system: MDA-MB-231 cells; test: Cell surface CRT expression (ICD biomarker) after DOX or CIS; assay type: cell-based, human; conditions: different concentrations of drug
# Method: as §1
# [4] = system: 4T1 cells; test: as above; assay type: cell-based, mouse; conditions: different concentrations of drug
# Method: as §1
# [5] = system: 4T1 cells; test: Vaccine approach: tumor growth in Balb/c mice vaccinated with drug-treated dead 4T1 cells; assay type: in vivo; conditions: DOX 30 μM or CIS 100 μM; live 4T1 cells in opposite flank; 25 days
# Method: (§2) The effect of DOX-induced ICD in Balb/c mice was further validated by vaccine approach. Dead 4T1 cells were subcutaneously injected into one flank of Balb/c mice together with an anticancer agent such as DOX (30 μM) or CIS (100 μM), or phosphate-buffered saline (PBS; control), twice for 2 weeks, with a 1-week interval. At two weeks after the first injection, live 4T1 cancer cells were injected into the opposite flank and the change in tumor size was evaluated for 25 days.
# [6] = system: IDO1; test: IDO1 expression in tumors obtained by vaccine approach; assay type: in vivo, Balb/c mice; conditions: mice vaccinated with drug-treated 4T1 cells
# Method: as §2
# (§3) Subsequently, it was investigated whether the DOX-induced ICD can induce the expression of IDO1 in a breast cancer mouse model as an indicator of the immune evasion mechanism in TME. In order to investigate the relationship between the expression of ICD and IDO1 in TME, the expression level of IDO1 in the tumors obtained by vaccine approach was investigated, and the result is shown in FIG. 4. […] Meanwhile, it was confirmed that the DOX-induced ICD upregulates IDO1 expression in tumor tissues via the immune evasion mechanism.
# [7] = system: MDA-MB-231 cells; test: Intracellular distribution of DOX by confocal microscopy; assay type: cell-based, human
# Method: (§4) In order to investigate the intracellular distribution of DOX and IDO1 siRNA delivered by the CD44/PD-L1 aptamosome, cells were treated with free DOX, Lipm [DOX/IDO1] and Aptm [DOX/IDO1] and analyzed by confocal microscopy with increasing incubation time. […] Nevertheless, a large amount of DOX was delivered easily by Aptm [DOX/IDO1] with the passage of time, and it was gradually delivered into the nucleus of MDA-MB-231 and 4T1 cells within 2 hours.
# [8] = system: 4T1 cells; test: as above; assay type: cell-based, mouse
# Method: as §4
# [9] = system: breast cancer cells; test: DOX-induced ICD: extracellular ATP release after liposome treatment; assay type: cell-based
# Method: Then, DOX-induced ICD was evaluated by monitoring extracellular ATP release and expression of cell surface CRT, which is an ICD marker, and the result is shown in FIG. 14.
# [10] = system: MDA-MB-231; test: Cytotoxicity (cell survivability); assay type: cell-based, human; conditions: 24 hours and 36 hours
# Method: (§5) Next, the cytotoxicity by an anticancer agent delivered together with Aptm [DOX/IDO1] was evaluated, and the result is shown in FIG. 16. Breast cancer cells (MDA-MB-231 and 4T1) and control group liver cells (HepG2) were treated with free DOX, Lipm [DOX/IDO1] and Aptm [DOX/IDO1] for 24 hours and 36 hours.
# [11] = system: 4T1; test: Cytotoxicity (cell survivability); assay type: cell-based, mouse; conditions: 24 hours and 36 hours
# Method: as §5
# [12] = system: control group liver cells (HepG2); test: Cytotoxicity (cell survivability); assay type: cell-based; conditions: 24 hours and 36 hours
# Method: as §5
# [13] = system: 4T1 tumor; test: Anticancer efficacy in 4T1 tumor xenograft mice (tumor size); assay type: in vivo; conditions: i.v. 4 times with 4-day intervals; DOX 0.3 mg/kg, siRNA 0.35 mg/kg; day 24
# Method: In addition, the anticancer efficacy of Aptm [DOX/IDO1] in the 4T1 tumor xenograft mice was investigated by measuring the decrease of tumor size, and the result is shown in FIG. 18. After the tumor size grew to 60-80 mm^3, the mice were divided randomly into 5 groups (5 mice per group) and each reagent was intravenously 4 times with 4-day intervals: saline (control group), free DOX (0.3 mg/kg), Lipm [DOX/IDO1], Aptm [DOX/IDO1] and Aptm [DOX/Ctr], each liposome containing the same amount of DOX (0.3 mg/kg) and siRNA (0.35 mg/kg). […] Morbidity was not observed when the mice were treated with Aptm [DOX/IDO1]. In particular, when the mice were treated with Aptm [DOX/Ctr] containing scrambled siRNA instead of IDO1 siRNA, the tumor size decreased by about 37.0% (vs. saline administration) due to decreased effect of inhibiting tumor growth. That is, the delivered IDO siRNA inhibits tumor growth by controlling TME.
# [14] = system: TNFα; test: TNFα secretion in the tumor of 4T1 tumor xenograft mice; conditions: mouse, in vivo
# Method: As the effect of Aptm [DOX/IDO1] on the control of tumor microenvironment (TME), cell death, ICD marker, immune cell ratio and TNF secretion in the tumor tissue of 4T1 tumor xenograft mice were evaluated. In order to investigate DOX-induced apoptotic cell death, TUNEL assay was conducted with the tumor tissues of 4T1 tumor xenograft mice.
# (§6) The effective inhibition of tumor growth improves anticancer immune response by reversing immunosuppressive TME to immunoresponsive TME in vivo by Aptm [DOX/IDO1]. In order to investigate whether tumor size reduction and TME control are mediated by IDO1 siRNA delivered to the 4T1 tumor xenograft mice, the IDO1 expression level in the tumor tissue of the mice was analyzed on day 24, and the result is shown in FIG. 20. The IDO1 expression level in the tumor obtained from the mice treated with free DOX was increased as compared to the IDO1 expression level in the tumor obtained from the mice treated with saline. […] In the tumor, the IDO1 expression was increased by the administration of Aptm [DOX/Ctr] lacking IDO1 siRNA. It is thought that the increased IDO1 expression is due to the improved ICD against the tumor due to the effective delivery of DOX using the CD44/PD-L1 aptamosome. Accordingly, the inhibition of IDO1 in combination with ICD can induce anticancer immune response in the immunoresponsive TME by Aptm [DOX/IDO1].
# [15] = system: IDO1; test: IDO1 expression level in tumor tissue of 4T1 tumor xenograft mice; assay type: in vivo; conditions: day 24
# Method: as §6
# [16] = system: 4T1 breast cancer cells; test: Tumor metastasis to the lung in 4T1 tumor-bearing mice (H&E); assay type: in vivo; conditions: H&E staining of lung tissue
# Description: Finally, it was investigated whether the administration of Aptm [DOX/IDO1] can inhibit tumor metastasis in 4T1 tumor-bearing mice. For detection of metastatic tumors, tumor tissues from the terminal part of the lung of the mice were stained with hematoxylin and eosin (H&E), and the images are shown in FIG. 21. […] Therefore, it was confirmed that the systemic administration of Aptm [DOX/IDO1] through the blood can inhibit tumor metastasis through targeted delivery of an anticancer drug targeting breast cancer cells.
# [17] = system: MDA-MB-231 cells; test: IDO1 and PD-L1 expression under IFNγ stimulation; assay type: cell-based, human
# Description: (§7) ICD-mediated immune response can invalidate the immune evasion mechanism of TME, such as overexpression of the immune checkpoint protein and IDO1. Accordingly, the expression of IDO1 and PD-L1 under IFNγ stimulation was monitored also in MDA-MB-231 and 4T1 cells.
# as §3
# [18] = system: 4T1 cells; test: IDO1 and PD-L1 expression under IFNγ stimulation; assay type: cell-based, mouse
# Description: as §7, §3
Compound,level of extracellularly released ATP [1],level of extracellularly released ATP [2],CRT expression on the cancer cell surface [3],CRT expression on the cancer cell surface [4],tumor growth after vaccination with drug-treated dead 4T1 cells [5],IDO1 protein and mRNA expression in tumor tissues [6],time until DOX reached the nucleus [7],time until DOX reached the nucleus [8],extracellular ATP release [9],cell survivability [10],cell survivability [11],cell survivability [12],tumor size decrease as compared to saline [13],TNFα secretion in the tumor [14],IDO1 expression level in the tumor [15],metastatic tumor in the lung [16],expression level of IDO1 ([17]; IFNγ stimulation),PD-L1 expression on the cell surface ([17]; IFNγ-treated cells),expression level of IDO1 ([18]; IFNγ stimulation),PD-L1 expression on the cell surface ([18]; IFNγ-treated cells)
"N.N.[Cl][Pt][Cl] [CIS, cisplatin]",did not increase the level of extracellular ATP,did not increase the level of extracellular ATP,did not increase the CRT expression on the cancer cell surface,did not increase the CRT expression on the cancer cell surface,did not inhibit tumor growth significantly,increased expression of IDO1 protein and mRNA,–,–,–,–,–,–,–,–,–,–,–,–,–,–
"COc1cccc2c1C(=O)c1c(O)c3c(c(O)c1C2=O)C[C@@](O)(C(=O)CO)C[C@@H]3O[C@H]1C[C@H](N)[C@H](O)[C@H](C)O1 [DOX, doxorubicin]",increased gradually with the concentration of DOX,increased gradually with the concentration of DOX,increased gradually as the concentration of DOX increased,increased gradually as the concentration of DOX increased,effectively inhibited tumor growth,highest IDO1 protein and mRNA expression,up to 1 hour,up to 1 hour,A large amount of ATP was released,lowest,lowest,lowest,did not reduce tumor size enough,relatively low TNFα secretion,increased,extensive filtration of 4T1 breast cancer cells was observed in the lung,–,–,–,–
IFNγ: cytokine used to stimulate IDO1 and PD-L1 expression in cancer cells,–,–,–,–,–,–,–,–,–,–,–,–,–,–,–,–,significantly upregulated,highly expressed,significantly upregulated,highly expressed
